Source: patent US20260217712A1, “SOLID STATE FORMS OF MNK INHIBITORS” (4E Therapeutics, Inc., priority 2023, published 2026)
Values after ≈ are worked out from the molar mass of the structure shown. “Also recorded” adds a separate entry of the source. Where two headings read alike, the source gives them in different places. Blank lines part the entries; values can stand above or below the compound they belong to.

How the values were obtained:
Type in all cases: physicochemical
[1] = Initial solubility testing in solvents; conditions: for solubility: organic solvent or mixture, thermodynamic from solid
Description: Structure (I) (20 mg) from Lot A (free form Pattern 1) was charged into HPLC vials, treated with solvent, 10 volumes at a time, until the material fully dissolved or a maximum of 50 volumes had been added. Once 50 volumes was reached without dissolution, the temperature was increased to 50° C. To each suspension, 1.1 molar equiv. (60 μL) of HCl (1M in THF) was added, stirred for 5 min, and slowly cooled to 5° C. at 0.1° C./min and held at that temperature overnight. All solids were then isolated by filtration through PTFE frits and dried under suction for 20 min. The samples were analyzed by XRPD.

[2] = Static storage at 40° C./75% RH, XRPD and HPLC post storage; conditions: 7 days
[3] = Drying / standing under ambient conditions, XRPD; conditions: for XRPD (Dry): after drying under ambient conditions overnight
Description: Structure (I) (Sample 28-2, 30 mg, Poorly Crystalline Pattern 3) was wetted with solvent (300 μL, 10 vol) according to Table 30 and put into a shaker at 50° C. for 6 days. The suspensions were isolated using filter cartridges and positive pressure. A XRPD pattern was collected for each sample. […] This characterization is presented and discussed in Examples detailed herein. (see, e.g., FIG. 75)

[4] = Static storage at 40° C./75% RH, XRPD and HPLC post storage; conditions: for stability to storage at 40° C./75% RH (in words): 40° C./75% RH (elevated temperature and humidity); for XRPD post storage at 40° C./75% RH / HPLC purity post storage at 40° C./75% RH: 7 days
Description: Purity analysis was performed on an Agilent HP1100/Infinity II 1260 series system equipped with a diode array detector and using OpenLAB software. The full method details are provided below:
Poorly Crystalline Structure (I) (from Lot A, Free Form Pattern 1, 30 mg) was dissolved in 50 volumes of THF:Water 9:1 at 60° C. in 13 vials, stirring at 500 RPM (small amount of debris present). The solutions were then treated with 1.1 molar equivalents (90/180 μL) of selected counter-ions (Table 7). The resulting solutions were then cooled down to 5° C. at 0.1° C./min and were held at this temperature for 2 days. The suspensions were filtered and dried under suction for 20 min. The gummed sample was left with the cap off to promote crystallization. All solids obtained were initially analyzed by XRPD and stored in glass HPLC vials for subsequent analysis.
Any solids obtained were analyzed by XRPD, ^1H NMR, HPLC, TGA, DSC, XRPD post storage at 40° C./75% RH after 7 days & IC if necessary. Additional microscopy techniques (PLM & HSM) were used to complement the above analysis where appropriate.

[5] = pKa measurements; conditions: listed as Lot A
[6] = Static storage at 25° C./97% RH, XRPD and HPLC post storage; conditions: 8 days, listed as Lot A
[7] = Gravimetric vapor sorption (GVS) and XRPD post-GVS
Description: Sorption isotherms were obtained using a SMS DVS Intrinsic moisture sorption analyzer, controlled by DVS Intrinsic Control software. The sample temperature was maintained at 25° C. by the instrument controls. The humidity was controlled by mixing streams of dry and wet nitrogen, with a total flow rate of 200 mL/min. The relative humidity was measured by a calibrated Rotronic probe (dynamic range of 1.0-100% RH), located near the sample. The weight change, (mass relaxation) of the sample as a function of % RH was constantly monitored by a microbalance (accuracy±0.005 mg).
(§1) Typically, 5-30 mg of sample was placed in a tared mesh stainless steel basket under ambient conditions. The sample was loaded and unloaded at 40% RH and 25° C. (typical room conditions). A moisture sorption isotherm was performed as outlined below (2 scans per complete cycle). The standard isotherm was performed at 25° C. at 10% RH intervals over a 0-90% RH range. Typically, a double cycle (4 scans) was carried out. Data analysis was carried out within Microsoft Excel using the DVS Analysis Suite.
Sorption isotherms were obtained using a Hiden IGASorp moisture sorption analyser, controlled by Isochema HISorp software. The sample temperature was maintained at 25° C. by a Grant LT ecocool 150 re-circulating water bath. The humidity was controlled by mixing streams of dry and wet nitrogen, with a total flow rate of 250 ml·min-1. The relative humidity was measured by a calibrated Vaisala RH probe (dynamic range of 0-95% RH), located near the sample. The weight change, (mass relaxation) of the sample as a function of % RH was constantly monitored by the microbalance (accuracy±0.001 mg).
as §1, with “Typically, 20-30” for “Typically, 5-30”, “scans giving 1” for “scans per”, “within the Isochema HISorp 2019 software and exported into” for “within”, “Excel to present accordingly.” for “Excel using the DVS Analysis Suite.”

[8] = Thermodynamic solubility in simulated media and buffers; conditions: 25 °C, thermodynamic from solid
Description: The thermodynamic solubility for Pattern 11 was determined in 3 simulated media and two buffers. […]

solubility ([1]; 50 °C, 50 vol, 50° C., read-out: solubilization upon heating to 50° C.): < 20 mg/mL | solubility ([1]; 20 mg in 10 vol of the sample's solvent, read-out: solubilization at 10 vol): < 100 mg/mL | solubility ([1]; 20 vol of the sample's solvent, read-out: solubilization at 20 vol): < 50 mg/mL | solubility ([1]; 30 vol of the sample's solvent, read-out: solubilization at 30 vol): < 33.3 mg/mL | solubility ([1]; 40 vol of the sample's solvent, read-out: solubilization at 40 vol): < 25 mg/mL | solubility ([1]; 50 vol of the sample's solvent, read-out: solubilization at 50 vol): < 20 mg/mL
Structure (SMILES): Cc1cc(Nc2cc(N)ncn2)c(=O)n2c1C(=O)NC21CCC2(CC2)CC1 [Pattern 8-2]

Structure (SMILES): Cc1cc(Nc2cc(N)ncn2)c(=O)n2c1C(=O)NC21CCC2(CC2)CC1 [Pattern 6]
XRPD post storage at 40° C./75% RH ([2]; listed as 30-4): convert to Pattern 3; also recorded: form-Pattern 3 | XRPD (Dry) ([3]; listed as 30-4): maintained after mild drying; also recorded: Pattern 6

stability to storage at 40° C./75% RH (in words) [4]: remained stable by XRPD & HPLC | stability to storage at 40° C./75% RH (in words) ([4]; listed as 9-8): data. Form looks stable | XRPD post storage at 40° C./75% RH ([4]; 40° C./75% RH): consistent with PHO Pattern 1 | HPLC purity post storage at 40° C./75% RH ([4]; 40° C./75% RH, listed as 9-8): 98.5% purity. Phosphate | HPLC purity post storage at 40° C./75% RH ([4]; 40° C./75% RH, listed as 22-2): 99.1% | XRPD post storage at 40° C./75% RH ([2]; listed as 9-8): pattern retained, | XRPD post storage at 40° C./75% RH ([2]; listed as 22-2): Unchanged
Structure (SMILES): Cc1cc(Nc2cc(N)ncn2)c(=O)n2c1C(=O)NC21CCC2(CC2)CC1 [Phosphate Pattern 1]

HPLC purity post storage at 40° C./75% RH ([4]; 40° C./75% RH, listed as 9-11): 98.8% | XRPD post storage at 40° C./75% RH ([2]; listed as 9-11): Citrate Pattern 1
Structure (SMILES): Cc1cc(Nc2cc(N)ncn2)c(=O)n2c1C(=O)NC21CCC2(CC2)CC1 [CIT Pattern 1]

form under ambient conditions (XRPD after ambient overnight) ([3]; ambient conditions): unstable at ambient conditions
Structure (SMILES): Cc1cc(Nc2cc(N)ncn2)c(=O)n2c1C(=O)NC21CCC2(CC2)CC1 [Pattern 9]
XRPD (Dry) [3]: unstable to drying under ambient conditions

solubility in solvents (in words) ([1]; up to 50 vol, up to 50° C.): insoluble in most solvents | HPLC after storage at 40° C./75% RH (8 days) ([4]; 40° C./75% RH, 8 days): HPLC-98.2% | acidic pKa (acidic center) [5]: Acidic: 11.49 | basic pKa [5]: Basic: 4.73 | HPLC purity after storage at 25° C./97% RH (8 days) [6]: HPLC-97.5% | solubility thermodynamic ([8]; simulated gastric fluid, SGF (pH 1.4), read-out: Thermodynamic solubility in simulated media, SGF): 0.13 mg/mL (≈ 0.355 mM) | solubility thermodynamic ([8]; FaSSIF (pH 6.7), read-out: Thermodynamic solubility in simulated media, FaSSIF): 0.006 mg/mL (≈ 0.0164 mM) | solubility thermodynamic ([8]; FeSSIF (pH 5.1), read-out: Thermodynamic solubility in simulated media, FeSSIF): 0.02 mg/mL (≈ 0.0546 mM)
Structure (SMILES): Cc1cc(Nc2cc(N)ncn2)c(=O)n2c1C(=O)NC21CCC2(CC2)CC1 [Pattern 1]
XRPD after storage at 40° C./75% RH (8 days) ([4]; 40° C./75% RH, 8 days, listed as Lot A): unchanged; also recorded: XRPD-poorly crystalline Pattern 1 (no change) | XRPD after storage at 25° C./97% RH (8 days) [6]: XRPD-poorly crystalline Pattern 1 (no change) | GVS mass change expressed as water ([7]; 0-90% RH): ~90% RH, exhibiting a slight hysteresis (ca. 6 mol eq water), | Post GVS XRPD form ([7]; after double cycle GVS, listed as Lot A): unchanged; also recorded: showed that the solid form remained as poorly crystalline | hygroscopicity (in words) ([7]; listed as Lot A): highly hygroscopic. XRPD of the sample after the analysis

change of chemical purity on storage at 40° C./75% RH (in words) ([4]; 40° C./75% RH): decrease in the observed chemical purity | stability to storage at 40° C./75% RH (in words) [4]: stable to storage | HPLC purity post storage at 40° C./75% RH ([4]; 40° C./75% RH, listed as 9-3): 95.6% | change of chemical purity on storage at 40° C./75% RH (in words) ([4]; 40° C./75% RH, listed as 9-3): complex thermal data, loss of purity | XRPD post storage at 40° C./75% RH ([2]; listed as 9-3): SUL Pattern 1
Structure (SMILES): Cc1cc(Nc2cc(N)ncn2)c(=O)n2c1C(=O)NC21CCC2(CC2)CC1 [SUL Pattern 1]

stability to storage at 40° C./75% RH (in words) ([4]; listed as 9-7): data. Form looks stable | XRPD post storage at 40° C./75% RH ([4]; 40° C./75% RH): consistent with Maleate Pattern 1 | HPLC purity post storage at 40° C./75% RH ([4]; 40° C./75% RH, listed as 9-7): 98.8% purity. Maleate | XRPD post storage at 40° C./75% RH ([2]; listed as 9-7): pattern retained; very
Structure (SMILES): Cc1cc(Nc2cc(N)ncn2)c(=O)n2c1C(=O)NC21CCC2(CC2)CC1 [Maleate Pattern 1]

XRPD post storage at 40° C./75% RH ([2]; listed as 30-15): Pattern 3
Structure (SMILES): Cc1cc(Nc2cc(N)ncn2)c(=O)n2c1C(=O)NC21CCC2(CC2)CC1 [Pattern 8]
XRPD (Dry) [3]: unstable to drying under ambient conditions

stability to storage at 40° C./75% RH (in words) [4]: stable to storage | HPLC purity post storage at 40° C./75% RH ([4]; 40° C./75% RH, listed as 9-9): 98.1% purity. Tartrate | XRPD post storage at 40° C./75% RH ([2]; listed as 9-9): pattern retained.
Structure (SMILES): Cc1cc(Nc2cc(N)ncn2)c(=O)n2c1C(=O)NC21CCC2(CC2)CC1 [Tartrate Pattern 1]

change of chemical purity on storage at 40° C./75% RH (in words) ([4]; 40° C./75% RH): slight uplift in purity | stability to storage at 40° C./75% RH (in words) ([4]; listed as 9-1): behavior but not stable to storage | XRPD post storage at 40° C./75% RH ([4]; 40° C./75% RH): remained HBr Pattern 1 | HPLC purity post storage at 40° C./75% RH ([4]; 40° C./75% RH, listed as 9-1): 98.7% purity | XRPD post storage at 40° C./75% RH ([2]; listed as 9-1): XRPD-HBr Pattern 1
Structure (SMILES): Cc1cc(Nc2cc(N)ncn2)c(=O)n2c1C(=O)NC21CCC2(CC2)CC1 [HBr Pattern 1]

stability to storage at 40° C./75% RH (in words) ([4]; listed as 30-6): not stable to static storage | XRPD post storage at 40° C./75% RH ([2]; listed as 30-6): 7 days: Change in form-Pattern 3 | XRPD (Dry) ([3]; listed as 30-6): Pattern 7
Structure (SMILES): Cc1cc(Nc2cc(N)ncn2)c(=O)n2c1C(=O)NC21CCC2(CC2)CC1 [Pattern 7]

XRPD post storage at 40° C./75% RH ([4]; 40° C./75% RH): converted to Pattern 3 | XRPD post storage at 40° C./75% RH ([2]; listed as 27-1): Change in form—Pattern 3
Structure (SMILES): Cc1cc(Nc2cc(N)ncn2)c(=O)n2c1C(=O)NC21CCC2(CC2)CC1 [Pattern 4]
